One series has as its target BRD4-BD1 (Homo sapiens, UniProt O60885). The experiment in a line: BRD4 AlphaLISA assay, BRD4-BD1. Type of series: binding. The note with it: displacement of acetyl-histone H4 peptide (Lys5, 8, 12, 16). From the text: (§1) This bead-based proximity assay is based on the competitive displacement of a histone peptide (acetyl-histone H4/Lys5, 8, 12, 16) from the human bromodomain [22].

For a further series, the target named is BRD4-BD2 (Homo sapiens, UniProt O60885). The series can be described thus: BRD4 AlphaLISA assay, BRD4-BD2. Type of series: binding. The note with it: displacement of acetyl-histone H4 peptide (Lys5, 8, 12, 16).
Text: as §1

A further series concerns 10–15 BRD4-NUT. The experiment in a line: Cell proliferation assay (Alamar readout), 10–15. Type of series: cell-based, human. To be noted: Homo sapiens, 96h, read-out: geomean GI50. On the procedure: (§2) The NUT Carcinoma cell line Ty-82 was purchased from JCRB Japan No. 1330 and cultivated in RPMI 1640 supplemented with 10% fetal calf serum (FCS). The NC cell lines 10–15, 14169 and 10326 were in-licensed from Christopher French, Brigham & Womens Hospital, Boston, and were cultivated in DMEM supplemented with glutamax and 10% FCS.
(§3) Viability assays were performed on 96-well flat-bottom microtiter plates and incubated with Alamar Blue solution (Invitrogen, Carlsbad, US-CA). The effects of drug combinations were analysed using the Bliss Independence Model.
(§4) Dose response curves (96h cell proliferation assay - Alamar readout) on four NC cell lines with BET inhibitor BI 894999. Yellow bar: readout t zero (before adding of compound). Green bar: DMSO control (max proliferation).
(§5) Dose response curves (96h cell proliferation assay - Alamar readout) on four NC cell lines with multiple BET inhibitors.

The subject of another series is 14169 BRD4-NUT. The series can be described thus: Cell proliferation assay (Alamar readout), 14169. Type of series: cell-based, human. The note with it: Homo sapiens, 96h, read-out: geomean GI50. Here is the method:
as §2, §3, §4, §5

The test system of the next series is 10326 BRD3-NUT. The series can be described thus: Cell proliferation assay (Alamar readout), 10326. Type of series: cell-based, human. To be noted: Homo sapiens, 96h, read-out: geomean GI50. On the procedure: as §2, §3, §4, §5
Series [1] concerns NC lines (Ty-82) versus AML cell lines (MV-4-11). The series can be described thus: Incucyte caspase-3/7 apoptosis / cell death analysis. Type of series: cell-based, human. The note with it: in contrast to AML cell lines, Supplementary Fig. S3. Here is the method:
Live-cell imaging was performed with the Incucyte® S3 Live-Cell Analysis System as described previously for Incucyte® Zoom.
Incucyte analysis. Ty-82 cells (NC) or MV-4-11 (AML) cells were treated with BI 894999 at the concentrations indicated and analyzed over time with the IncuCyte™Caspase-3/7 Apoptosis Assay Reagent (Essenbioscience Cat No 4440). Cell confluence (left) and green fluorescence as a measure of caspase 3/7 activation (right) were monitored for up to 7 days with images taken every 3 hours.

Series [2] relates to Ty-82 xenograft (BRD4-NUT). The experiment in a line: Ty-82 NC xenograft model. Type of series: in vivo, mice. The note with it: 2 mg/kg BI 894999 p.o. daily. From the text: (§6) Mice were group-housed (8–10 mice per cage) under pathogen-free and controlled environmental conditions (21 ± 1.5 C temperature, 55 ± 10% humidity) in an AAALAC accredited facility and handled according to the institutional, governmental and European Union guidelines (Austrian Animal Protection Laws, GV-SOLAS and FELASA guidelines). Animal studies were approved by the internal ethics committee and the local government committee. Mice were 6- to 8-week-old female CIEA NOG purchased from Taconic, Denmark (NOD.Cg-Prkdc^scid Il2rg^tm1Sug/JicTac). 5 × 10^6 NC tumour cells were injected subcutaneously into the right flank of the mice (1 site per mouse). Mice were randomly distributed between the treatment and the vehicle control when tumours were well established and had reached volumes of 100–150 mm^3. Compounds were suspended in 0.5% Natrosol and administered once daily intra-gastral by gavage needle. Tumour diameters were measured three times a week with a calliper. […] Within each subtopic the p-values of the efficacy parameters were adjusted for multiple comparisons according to Bonferroni–Holm. The p-values of the tolerability parameter remained unadjusted in order not to overlook a possible adverse effect. The level of significance was fixed at α = 5%. An adjusted p-value of less than 0.05 was considered to show a statistically significant difference between the groups. The statistical evaluation was prepared using the software Graph Pad Prism.

Series [3] concerns 10326 xenograft (BRD3-NUT). The experiment in a line: 10326 NC xenograft model. Type of series: in vivo. The note with it: 2 mg/kg BI 894999.
Text: as §6

Series [4] is described as follows: PK analysis in mouse plasma. Type of series: in vivo. To be noted: CIEA NOG (NOD.Cg-Prkdc^scid Il2rg^tm1Sug/JicTac), po, mice, 2 mg/kg p.o. From the text:
PK analysis in mouse plasma. Oral treatment at the indicated doses. Sampling at the indicated timepoints.

Another series deals with Ki67. The experiment in a line: IHC of 10326 xenograft tumours, Ki67. Type of series: in vivo, mice. The note with it: day 21, BI 894999 monotherapy 2 mg/kg. Here is the method: Immunohistochemistry was performed on formalin-fixed, paraffin-embedded tumour tissue using antibodies against human Ki67(Cell Signaling #9027, 1:400 dilution), anti-human mitochondria (Abcam ab92824, 1:1000 dilution) and against endogenous NUT protein (Cell Signaling #3625, 1:50 dilution) used to detect NUT fusion proteins. Digital images of whole tissue sections were acquired using a Leica SCN400 histology scanner (Leica Microsystems). Ki67-positive index was evaluated using Halo Software V. 3.2 (Indica lab). Regions of interest (ROIs) within the tissue sections were first identified using Halo Software via machine learning technology across pathological samples and tissue control, within these ROIs, nuclei were detected and classified as positive or negative based on IHC staining thresholds.
Quantification of Ki67 staining in NC 10326 tumor sections after treatment with BI 894999, CCS1477, or the combination thereof.

In series [5] the test system is human solid and haematological cancer lines as well as primary patient-derived AML samples. To be noted: cited from earlier work.

In the case of `CNc1nc(-c2nc3ccc(N4CCN(C)CC4)cc3n2Cc2ccccc2)cn2c(C)nnc12` [BI 894999], the half-maximal inhibitory concentration (IC50) at BRD4-BD1 is 5 ± 3 nM; on BRD4-BD2, 41 ± 30 nM. Further, the concentration for 50% growth inhibition (GI50) in the series with 10–15 BRD4-NUT is 1.7 nM; in the series with 14169 BRD4-NUT it was 0.9 nM; in the series on 10326 BRD3-NUT, 1.2 nM. Moreover, the “fold higher compound concentrations required to undergo cell death” value in [1] is recorded as > 100 fold. In addition, in [2], the “TGI (tumour growth inhibition)” value came out at 5%. This compound showed an inhibition of tumour growth (TGI) in series [3] of 99%. For the same compound, the Cmax in series [4] came to 10 nM. In addition, the “cell proliferation as assessed by Ki67 levels” value in the series with Ki67 is given as “reduced cell proliferation”. For the same compound, the GI50 values result in [5] (AML cell lines) is “single-digit nM range”. The “fold more potent compared to other BET inhibitors (GSK525762, OTX015, JQ1)” value in series [5] (cellular potency in large panels) was “at least 10 fold”.

(Values after paper PMC9346113, “Therapeutic impact of BET inhibitor BI 894999 treatment: backtranslation from the clinic” (British Journal of Cancer, 2022).)
